Measurements reported in EP0314302A2, “Herbicidal o-carbomethoxy-sulfonylureas” (E.I. DU PONT DE NEMOURS AND COMPANY, priority 1987, dated 1989).

Columns and labels:
[1] = system: Guinea Grass; test: Test 3 postemergence weed control; format: in vivo, Panicum maximum; conditions: 32 g/ha, scale 0-100
Procedure: Seeds of crabgrass (Digitaria spp), guinea grass (Panicum maximum) and narrowleaf panicum (P. maximum) were planted in 15-cm plastic pots. The weeds were treated postemergence with compound I, formulated in a non-phytotoxic solvent, when the plants had 3 or more leaves and had tillered. The degree of weed control was visually rated 17 days after compound application (DAT). Control ratings were based on a scale of 0 to 100 where 0 = no effect, 20 = minimal control and 100 = complete control.

[2] = system: Sowthistle; test: Test 9 postemergence; format: in vivo, Sonchus spp; conditions: scale 0-100
Procedure: Plastic windowsill pots containing planting medium were seeded with bahiagrass, bindweed (Convolvulus spp), guinea grass (Panicum maximum), large crabgrass (Digitaria sanguinalis) and pigweed (Amaranthus spp). Individual 15-cm plastic pots contained sandbur (Cenchrus echinatus), Mikania cordata, Boston fern (Nephrolepis exalata), quackgrass (Agropyron repens), elephantgrass (Pennisetum purpureum) and sowthistle (Sonchus spp) plants.
Plants were treated postemergence with Compound I formulated in a non-phytotoxic solvent. Plants were visually rated 22 days after treatment (DAT). Injury and weed control ratings were based on the scale of 0 to 100 where 0 = no effect, 20 = minimal control and 100 = complete control.

[3] = system: Annual ryegrass; test: Test 10 postemergence safety to crops and weed control; format: in vivo, Lolium multiflorum; conditions: 16 g/ha, scale 0-100
Procedure: The object of these tests was to evaluate the compound of this invention for postemergence safety to crops and weed control. Seedling and budded Macedine grapes were grown in 11.4-cm pots. Flax, green foxtail (Setaria viridis), "Morex" barley, wild oats (Avena fatua), "Era" wheat, annual ryegrass (Lolium multiflorum), wild radish (Raphanus raphanistrum), rape, sunflower, chickweed (Stellaria media) and wild buckwheat (Polygonum convolvulus) were seeded in windowsill pots.
The plants were sprayed postemergence with Compound I in a non-phytotoxic solvent. Plants were visually rated 15 and 27 days after treatment (DAT). Injury and weed control ratings were based on the scale of 0 to 100 where 0 = no effect, 20 minimal control and 100 = complete control.

[4] = system: Common ragweed; test: Test 11 citrus pots, postemergence to the weeds; format: in vivo, Ambrosia artemisiifolia; conditions: Postemergence 32 g/ha, 0.25% X-77 surfactant, scale 0-100
Procedure: (§1) Budded citrus seedlings were planted in 30-liter plastic pots which were also seeded with sandbur, guineagrass, narrowleaf panicum, common ragweed, yellow nutsedge, purple nutsedge and bindweed. Compound I was applied preemergence and postemergence to the weeds. Treatments were sprayed to simulate the trunk-to-trunk herbicide application method used in some citrus groves. The compound was also applied postemergence to weeds grown in windowsill flats. The flats were filled with planting medium and seeded with morningglory (Ipomoea spp.). purple nutsedge (Cyperus rotundus), pigweed (Amaranthus spp.), bindweed (Convolvulus spp.), narrowleaf panicum (Panicum maximum), common ragweed (Ambrosia artemisiifolia), sandbur (Cenchrus echinatus), itchgrass (Rottboellia exaltata), johnsongrass (Sorghum halepense), guineagrass (Panicum maximum), smooth crabgrass (Digitaria ischaemum), broadleaf signalgrass (Brachiaria platyphylla), bermudagrass (Cynodon dactylon), goosegrass (Eleusine indica), large crabgrass (Digitaria sanguinalis) and yellow nutsedge (Cyperus esculentus).
(§2) The compound was formulated and sprayed with 0.25% X-77 surfactant in water. Plants were visually rated 21 and 29 days after treatment and compared with appropriate controls. Injury ratings were based on the scale of 0 to 100, where 0 indicates no effect, 20 indicates minimum effect and 100 indicates complete control. […]

[5] = system: Sandbur; test: Test 11 windowsill flats, postemergence; format: in vivo, Cenchrus echinatus; conditions: Postemergence 32 g/ha, 0.25% X-77 surfactant, scale 0-100
Procedure: as §1, §2

[6] = system: Itchgrass; test: Test 11 windowsill flats, postemergence; format: in vivo, Rottboellia exaltata; conditions: Postemergence 32 g/ha, 0.25% X-77 surfactant, scale 0-100
Procedure: as §1, §2

[7] = system: Bermudagrass; test: Test 11 windowsill flats, postemergence; format: in vivo, Cynodon dactylon; conditions: Postemergence 32 g/ha, 0.25% X-77 surfactant, scale 0-100
Procedure: as §1, §2

[8] = system: Sour Lemon; test: Test 12 over-the-top application, postemergence; format: in vivo; conditions: 26 days after treatment, scale 0-100
From the text: The object of this test was to evaluate the safety of sour lemon to the over-the-top application of Compound I and control of lantana (Lantana camara) and trumpetcreeper (Campsis radicans). Plants were sprayed postemergence with Compound I formulated in a non-phytotoxic solvent. Treated plants were visually rated 26 days after treatment and compared with appropriate controls. Injury ratings were based on the scale of 0 to 100, where 0 indicates no effect, 20 indicates minimal effect and 100 indicates complete control.

For `COC(=O)c1cccnc1S(=O)(=O)NC(=O)Nc1nc(OC)cc(OC)n1` [Compound I, 2-[[(4,6-dimethoxypyrimidin-2-yl)aminocarbonyl]aminosulfonyl]-3-pyridinecarboxylic acid, methyl ester], the “Control Rating 17 DAT” value [1] was 70, the “Plant Injury Rating 22 DAT” value ([2]; 8 g/ha) was 60 and the “Plant Injury Rating 22 DAT” value ([2]; 16 g/ha) was 70. For the same molecule, the “Plant Injury Rating 22 DAT” value ([2]; 32 g/ha) was 100, the “Plant Injury Rating 15 DAT” value [3] was 100 and the Injury ratings [4] was 0. It also gave an Injury ratings [5] of 100, an Injury ratings [6] of 100 and an Injury ratings [7] of 20. The Injury ratings ([8]; 8 g/ha) was 20, the Injury ratings ([8]; 16 g/ha) was 50 and the Injury ratings ([8]; 32 g/ha) was 70.
